≈ marks a conversion by molar mass, not a printed value. Where two headings read alike, the source gives them in different places.
Tests used:
MnaA = molecular target: T1, MnaA (Staphylococcus aureus, UniProt Q9REV4); experiment: X-ray crystal structure, […] Å; assay type: binding; conditions: 4 mM Na2UDP added; one UDP per chain; also co-purified with the protein
T1 construct: MnaA-His6 in the activity assays; purification in supplement (S1 Text); dimer in crystal; residues from 376 to the C-terminus not modelled

[1] = system: T2, Staphylococcus epidermidis MRSE CLB26329; experiment: microbe, parasite or virus in culture; parameters: minimum inhibitory concentration of antibiotics against staphylococcal strains
T2 construct: CLB26329 (MRSE), parental wild type
Description: (§1) Minimum inhibitory concentrations (MIC; μg ml^-1) of β-lactams imipenem (IPM), nafcillin (Naf), and dicloxacillin (Dic) are provided. […] To directly evaluate the consequence of these mnaA mutations, WTA of the corresponding mutants was extracted and polymer levels visualized on an alcian blue-silver stained SDS PAGE gel (Fig 3A and S1 Fig).

[2] = system: T3, Staphylococcus aureus MRSA COL; experiment: microbe, parasite or virus in culture; parameters: minimum inhibitory concentration of antibiotics against staphylococcal strains
T3 construct: COL (MRSA), parental wild type
Description: as §1

[3] = system: CC(=O)N[C@@H]1[C@@H](OP(=O)(O)OP(=O)(O)OC[C@H]2O[C@@H](n3ccc(=O)[nH]c3=O)[C@H](O)[C@@H]2O)O[C@H](CO)[C@@H](O)[C@@H]1O; experiment: purified protein; conditions: reverse reaction, 10 mM NaPi, 50 mM NaCl, pH 8.0, 30°C, MnaA-His6
[4] = system: CC(=O)N[C@H]1[C@@H](OP(=O)(O)OP(=O)(O)OC[C@H]2O[C@@H](n3ccc(=O)[nH]c3=O)[C@H](O)[C@@H]2O)O[C@H](CO)[C@@H](O)[C@@H]1O; experiment: purified protein; conditions: forward reaction, 10 mM NaPi, 50 mM NaCl, pH 8.0, 30°C, MnaA-His6
[5] = read-out: MIC (µg ml-1) / Vanco

T1 sequence (Q9REV4 entry or part of it): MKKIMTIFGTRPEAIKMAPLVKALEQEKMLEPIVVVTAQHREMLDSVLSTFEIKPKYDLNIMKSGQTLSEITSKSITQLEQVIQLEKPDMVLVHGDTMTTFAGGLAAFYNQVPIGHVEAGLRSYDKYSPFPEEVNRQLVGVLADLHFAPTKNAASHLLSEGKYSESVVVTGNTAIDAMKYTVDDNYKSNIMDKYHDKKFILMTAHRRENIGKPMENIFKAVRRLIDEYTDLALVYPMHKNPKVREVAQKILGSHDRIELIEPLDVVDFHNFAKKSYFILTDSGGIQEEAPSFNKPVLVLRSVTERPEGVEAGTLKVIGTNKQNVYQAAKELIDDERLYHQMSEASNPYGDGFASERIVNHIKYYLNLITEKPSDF

O=c1ccn([C@@H]2O[C@H](COP(=O)(O)OP(=O)(O)O)[C@@H](O)[C@H]2O)c(=O)[nH]1 [UDP]
X-ray crystal structure, 1.9 Å (MnaA): The model also contains one molecule of UDP per chain

Cc1onc(-c2c(Cl)cccc2Cl)c1C(=O)N[C@@H]1C(=O)N2[C@@H]1SC(C)(C)[C@@H]2C(=O)O [dicloxacillin]
MIC ([1]; read-out: MIC (µg ml-1) / Dic): > 64 µg/mL
MIC ([2]; read-out: MIC (µg ml-1) / Dic): > 64 µg/mL

C[C@@H](O)[C@H]1C(=O)N2C(C(=O)O)=C(SCCNC=N)C[C@H]12 [imipenem]
MIC ([1]; read-out: MIC (µg ml-1) / IPM): 64 µg/mL (≈ 214 µM)
MIC ([2]; read-out: MIC (µg ml-1) / IPM): 32 µg/mL (≈ 107 µM)

CCOc1ccc2ccccc2c1C(=O)N[C@@H]1C(=O)N2[C@@H]1SC(C)(C)[C@@H]2C(=O)O [nafcillin]
MIC ([1]; read-out: MIC (µg ml-1) / Naf): > 64 µg/mL
MIC ([2]; read-out: MIC (µg ml-1) / Naf): > 64 µg/mL

CN[C@H](CC(C)C)C(=O)N[C@H]1C(=O)N[C@@H](CC(N)=O)C(=O)N[C@H]2C(=O)N[C@H]3C(=O)N[C@H](C(=O)N[C@H](C(=O)O)c4cc(O)cc(O)c4-c4cc3ccc4O)[C@H](O)c3ccc(c(Cl)c3)Oc3cc2cc(c3O[C@@H]2O[C@H](CO)[C@@H](O)[C@H](O)[C@H]2O[C@H]2C[C@](C)(N)[C@H](O)[C@H](C)O2)Oc2ccc(cc2Cl)[C@H]1O [vancomycin]
MIC [1, 5]: 4 µg/mL (≈ 2.76 µM)
MIC [2, 5]: 2 µg/mL (≈ 1.38 µM)

MnaA (Staphylococcus aureus)
Km [3]: 131 ± 21 µM
Km [4]: 411 ± 57 µM
